US20240409534A1, “CRYSTAL FORM OF METHYLPYRAZOLE-SUBSTITUTED PYRIDOIMIDAZOLE COMPOUND AND PREPARATION METHOD THEREFOR” (priority 2021, published 2024)

Test: Pharmacokinetic study in rats at 100 mpk (Experimental Embodiment 4)
Format: in vivo
Conditions: male SD rats; for AUC(0-inf) / AUC(0-t) / Cmax / Tmax / half-life: Sprague-Dawley, rat, plasma, po, 100 mg/kg
Description: SD rats (overnight fasting, 7 to 11 weeks old)
The compound of the present disclosure or its crystal form of 5% DMSO/10% Kolliphor HS15/85% (0.2% (v/v) Tween80 aqueous solution) at 10 mg/mL was administered by gavage to male SD rats (overnight fasting, 7 to 11 weeks old) at a dose of 100 mg/kg. At 0.25, 0.5, 1.0, 2.0, 4.0, 8.0 and 24 h after administration, approximately 0.2 mL of blood was collected from the jugular vein of the animals in all three groups, placed in an anticoagulant tube added with EDTA-K2, and centrifuged for the separation of plasma. Plasma concentrations were determined by LC-MS/MS method, and relevant pharmacokinetic parameters were calculated using WinNonlin™ Version 6.3 (Pharsight, Mountain View, CA) pharmacokinetic software with non-compartmental model linear-log trapezoidal method.

Row | SMILES | AUC(0-inf) | AUC(0-t) | Cmax | Tmax | half-life | Tlast
1 | CS(=O)(=O)O.Cn1cc(-c2ccn3c(-c4cc(NS(C)(=O)=O)nc(-c5ccc(F)cc5F)c4)cnc3c2)cn1 | 179 µM·h | 179 µM·h | 22.1 µM | 2.5 h | 1.85 h | 24.0 h
2 | Cl.Cn1cc(-c2ccn3c(-c4cc(NS(C)(=O)=O)nc(-c5ccc(F)cc5F)c4)cnc3c2)cn1 | 32.3 µM·h | 32.3 µM·h | 8.78 µM | 0.5 h | 2.57 h | 24.0 h
3 | Cn1cc(-c2ccn3c(-c4cc(NS(C)(=O)=O)nc(-c5ccc(F)cc5F)c4)cnc3c2)cn1 [Compound represented by formula (I)] | 12.6 µM·h | 12.6 µM·h | 3.75 µM | 0.5 h | 2.25 h | 24.0 h
